System: NLRP3 inflammasome
Test: IL-1β Secretion Assay (NLRP3-dependent IL-1β secretion in PMA-differentiated THP-1 cells, nigericin activation, HTRF)
Type: cell-based
Details: Homo sapiens, THP-1, THP-1 cells, 100 ng/mL PMA 24 h, compound 20 h, 2.5 μM Nigericin 3 h; read-out: IC50 IL-1β Inhibition
Description: Cells were washed 1× with 100 ul PBS and replaced with fresh RPMI+5% FBS. Compounds were serial diluted in DMSO with 3 fold dilution for a total of 7 concentrations.
Compounds, once produced and prepared according to the present invention, can be assessed in variety of assays to characterize their activities. […] IC50 values of IL1β inhibition were calculated from the plot of percentage of inhibition versus the inhibitor concentration by a logistics fit. TABLE I depict examples of compounds according to generic Formulae I. Data which is <1 nM is listed as *****; data 1-10 nM is listed as ****; data 10-100 nM is listed as ***, data 100-300 nM is listed as **, data >300 nM is listed as *.

SMILES | IC50
COc1cccc(-c2nnc(N[C@@H]3CCCN(C)C3)c3cnccc23)c1O [Compound I-73] | < 1 nM
CN1CCC[C@@H](Nc2nnc(-c3cnc(C#N)cc3O)c3ccccc23)C1 [Compound I-74] | 10 to 100 nM
CN1CCC[C@@H](Nc2nnc(-c3ccc(C(F)(F)F)nc3O)c3ccccc23)C1 [Compound I-75] | 10 to 100 nM
CN1CCC[C@@H](Nc2nnc(-c3cccc(Cl)c3O)c3ccncc23)C1 [Compound I-76] | < 1 nM
CN1CCC[C@@H](Nc2nnc(-c3cccc(C4CC4)c3O)c3ccncc23)C1 [Compound I-77] | < 1 nM
Cc1ccc(-c2nnc(N[C@@H]3CCCN(C)C3)c3cnccc23)c(O)n1 [Compound I-78] | 10 to 100 nM
CN1CCC[C@@H](Nc2nnc(-c3cnc(C(F)(F)F)cc3O)c3ccccc23)C1 [Compound I-79] | 10 to 100 nM
CN1CCC[C@@H](Nc2nnc(-c3ccc(C#N)nc3O)c3ccccc23)C1 [Compound I-80] | 100 to 300 nM
CN1CCC[C@@H](Nc2nnc(-c3ncc(Cl)cc3O)c3ccccc23)C1 [Compound I-81, (R)-5-Chloro-2-(4-((1-methylpiperidin-3-yl)amino)phthalazin-1-yl)pyridin-3-ol] | 10 to 100 nM
Cc1cccc(-c2nnc(N[C@@H]3CCCN(C)C3)c3cnccc23)c1O [Compound I-82] | < 1 nM
Oc1cc(C(F)(F)F)ccc1-c1nnc(N[C@H]2CNC[C@H](O)C2)c2ccccc12 [Compound I-83] | 10 to 100 nM
CN1C[C@H](O)C[C@@H](Nc2nnc(-c3ccc(C(F)(F)F)cc3O)c3ccccc23)C1 [Compound I-84] | 10 to 100 nM
CN1CCC[C@@H](Nc2nnc(-c3ccc(C(F)(F)F)cc3O)c3occc23)C1 [Compound I-85] | 10 to 100 nM
Cc1ccc(-c2nnc(N[C@@H]3CCCN(C)C3)c3ncccc23)c(O)c1 [Compound I-86] | < 1 nM
CN1CCC[C@H]1CNc1nnc(-c2ccc(C(F)(F)F)cc2O)c2ccccc12 [Compound I-87] | 1 to 10 nM
Cc1cc(O)c(-c2nnc(N[C@@H]3CCCN(C)C3)c3cnccc23)cc1F [Compound I-88] | < 1 nM
CN1CCC[C@@H](Nc2nnc(-c3ccc(C4CC4)cc3O)c3ccncc23)C1 [Compound I-89] | < 1 nM
CN1CCC[C@@H](Nc2nnc(-c3ncc(C4CC4)cc3O)c3ccccc23)C1 [Compound I-91, (R)-5-Cyclopropyl-2-(4-((1-methylpiperidin-3-yl)amino)phthalazin-1-yl)pyridin-3-ol] | < 1 nM
CN1CCC[C@@H](Nc2nnc(-c3ccc(N4CCCC4)cc3O)c3ccccc23)C1 [Compound I-93] | 1 to 10 nM
CN1CCC[C@@H](Nc2nnc(-c3ccc(-c4ccn(C)c4)cc3O)c3ccccc23)C1 [Compound I-94] | 1 to 10 nM
CN1CCCCC(Nc2nnc(-c3ccc(C(F)(F)F)cc3O)c3ccccc23)C1 (centres unmarked) [Compound I-95] | 1 to 10 nM
CN1CCC[C@@H](Cc2nnc(-c3ccc(C(F)(F)F)cc3O)c3ccccc23)C1 [Compound I-96, (S)-2-(4-((1-methylpiperidin-3-yl)methyl)phthalazin-1-yl)-5-(trifluoromethyl)phenol] | > 300 nM

SMILES | IC50
CN1CCC[C@H](Cc2nnc(-c3ccc(C(F)(F)F)cc3O)c3ccccc23)C1 [Compound I-97, (R)-2-(4-((1-methylpiperidin-3-yl)methyl)phthalazin-1-yl)-5-(trifluoromethyl)phenol] | < 1 nM
O=C(O)CN1CCC[C@@H](Nc2nnc(-c3ccc(C(F)(F)F)cc3O)c3ccccc23)C1 [Compound I-98, (R)-2-(3-((4-(2-Hydroxy-4-(trifluoromethyl)phenyl)phthalazin-1-yl)amino)piperidin-1-yl)acetic acid] | < 1 nM
Cc1ccc(-c2nnc(N[C@@H]3CCCN(C)C3)c3ccncc23)c(O)c1 [Compound I-99] | < 1 nM
OCCN1CCC[C@@H](Nc2nnc(-c3ccc(C(F)(F)F)cc3O)c3cnccc23)C1 [Compound I-101] | < 1 nM
CN1CCC[C@@H](Nc2nnc(-c3ccc(OC(F)(F)F)cc3O)c3ccncc23)C1 [Compound I-102] | < 1 nM
Cc1cc(C(F)(F)F)cc(O)c1-c1nnc(N[C@@H]2CCCN(C)C2)c2cnccc12 [Compound I-103] | < 1 nM
CN1CCC[C@@H](Nc2nnc(-c3ccc(C(F)(F)F)cc3O)c3c(Cl)ccn23)C1 [Compound I-104, 2-[8-Chloro-4-[[(3R)-1-methyl-3-piperidyl]amino]pyrrolo[1,2-d][1,2,4]triazin-1-yl]-5-(trifluoromethyl)phenol] | 1 to 10 nM
Cc1cccc(O)c1-c1nnc(N[C@@H]2CCCN(C)C2)c2cnccc12 [Compound I-105] | 1 to 10 nM
CN1CCC(c2ccc(-c3nnc(N[C@@H]4CCCN(C)C4)c4ccccc34)c(O)c2)C1 (some centres unmarked) [Compound I-107] | 10 to 100 nM
Oc1cc(C(F)(F)F)ccc1-c1nnc(NCCN2CCOCC2)c2ccccc12 [Compound I-108] | 10 to 100 nM
Oc1cc(C(F)(F)F)ccc1-c1nnc(NC2CNC2)c2ccccc12 [Compound I-109] | 10 to 100 nM
Oc1cc(C(F)(F)F)ccc1-c1nnc(NC[C@@H]2CCCN2)c2ccncc12 [Compound I-110] | < 1 nM
Oc1cc(C(F)(F)F)ccc1-c1nnc(NC[C@@H]2CCCN2)c2cnccc12 [Compound I-111] | 1 to 10 nM
CN1CCC[C@H]1CNc1nnc(-c2ccc(C(F)(F)F)cc2O)c2ccncc12 [Compound I-112] | < 1 nM
CCN1CCC[C@H]1CNc1nnc(-c2ccc(C(F)(F)F)cc2O)c2ccncc12 [Compound I-113] | < 1 nM
CN1CCN(c2nnc(-c3ccc(C(F)(F)F)cc3O)c3cnccc23)CC1 [Compound I-116] | 100 to 300 nM
CN1CCC[C@@H](Nc2nnc(-c3ccc(C(F)(F)F)cc3O)c3c2N(C)CCO3)C1 [Compound I-117] | 10 to 100 nM
CN1CCCC(Cc2nnc(-c3ccc(C(F)(F)F)cc3O)c3cnccc23)C1 (centres unmarked) [Compound I-118, 2-(1-((1-Methylpiperidin-3-yl)methyl)pyrido[3,4-d]pyridazin-4-yl)-5-(trifluoromethyl)phenol] | 1 to 10 nM
COc1cc(C(F)(F)F)ccc1-c1nnc(N[C@@H]2CCCN(C)C2)c2cnccc12 [Compound I-119] | 1 to 10 nM
CN1CCC[C@@H](Nc2nnc(-c3ccc(C(F)(F)F)cc3OC(F)F)c3ccccc23)C1 [Compound I-120] | 1 to 10 nM
CN1CCC[C@@H](Nc2nnc(-c3ccc(C(F)(F)F)cc3OC(F)F)c3ccncc23)C1 [Compound I-121] | < 1 nM
CN1CCC[C@@H](Nc2nnc(-c3ccc(C(F)(F)F)cc3OC(F)F)c3cnccc23)C1 [Compound I-122] | 1 to 10 nM

SMILES | IC50
CN1CCC[C@@H](Nc2nnc(-c3ccc(C(F)(F)F)cc3N)c3ccccc23)C1 [Compound I-123] | 1 to 10 nM
CN1CCC[C@@H](Nc2nnc(-c3ccc(C(F)(F)F)cc3NS(C)(=O)=O)c3ccccc23)C1 [Compound I-124] | 1 to 10 nM
CNc1cc(C(F)(F)F)ccc1-c1nnc(N[C@@H]2CCCN(C)C2)c2ccccc12 [Compound I-125] | 1 to 10 nM
CC(=O)Nc1cc(C(F)(F)F)ccc1-c1nnc(N[C@@H]2CCCN(C)C2)c2ccccc12 [Compound I-126] | 1 to 10 nM
CN1CCC[C@@H](Nc2nnc(-c3ccc(C(F)(F)F)cc3F)c3ccccc23)C1 [Compound I-127] | 1 to 10 nM
CN1CCC[C@@H](Nc2nnc(-c3ccc(C(F)(F)F)cc3F)c3ccncc23)C1 [Compound I-128] | 1 to 10 nM
CN1CCC[C@@H](Nc2nnc(-c3ccc(Cl)cc3F)c3ccncc23)C1 [Compound I-129] | < 1 nM
CN1CCC[C@@H](Nc2nnc(-c3ccc(C(F)(F)F)cc3C#N)c3ccncc23)C1 [Compound I-130] | 1 to 10 nM
CN1CCC[C@@H](Nc2nnc(-c3ccc(C(F)(F)F)cc3C#N)c3ccccc23)C1 [Compound I-131] | 1 to 10 nM
CN1CCC[C@@H](Nc2nnc(-c3ccc(Cl)cc3OC(F)F)c3ccncc23)C1 [Compound I-132] | < 1 nM
CN1CCC[C@@H](Nc2nnc(-c3ccc(Cl)cc3OC(F)F)c3ccccc23)C1 [Compound I-133] | 1 to 10 nM
Cc1ccc(-c2nnc(N[C@@H]3CCCN(C)C3)c3cnccc23)c(OC(F)F)c1 [Compound I-134] | 1 to 10 nM
Cc1ccc(-c2nnc(N[C@@H]3CCCN(C)C3)c3ccccc23)c(OC(F)F)c1 [Compound I-135] | 1 to 10 nM
Cc1ccc(-c2nnc(N[C@@H]3CCCN(C)C3)c3cnccc23)c(C#N)c1 [Compound I-136] | 1 to 10 nM
CN1CCC[C@@H](Nc2nnc(-c3ccc(-n4nccn4)cc3O)c3ccncc23)C1 [Compound I-137] | < 1 nM
CN1CCC[C@@H](Nc2nnc(-c3ccc(C(F)(F)F)cc3C(F)F)c3ccncc23)C1 [Compound I-138] | 1 to 10 nM
CN1CCC[C@H](Nc2nnc(-c3c(O)cccc3Cl)c3ccncc23)C1 [Compound I-139] | 1 to 10 nM
CN1CCC[C@@H](Nc2nnc(-c3c(O)cccc3C#N)c3ccncc23)C1 [Compound I-140] | 1 to 10 nM
CN1CCC[C@@H](Nc2nnc(-c3ccc(C(F)(F)F)cc3Cl)c3ccncc23)C1 [Compound I-143, (R)-1-(2-Chloro-4-(trifluoromethyl)phenyl)-N-(1-methylpiperidin-3-yl)pyrido[3,4-d]pyridazin-4-amine] | 1 to 10 nM
COc1cc(C(F)(F)F)ccc1-c1nnc(N[C@@H]2CCCN(C)C2)c2c1cnn2C [Compound I-144, 4-[2-Methoxy-4-(trifluoromethyl)phenyl]-1-methyl-N-[(3R)-1-methyl-3-piperidyl]pyrazolo[3,4-d]pyridazin-7-amine] | 1 to 10 nM
CN1CCC[C@@H](Nc2nnc(-c3ccc(C(F)(F)F)cc3C3=CCOC3)c3ccncc23)C1 [Compound I-145] | 1 to 10 nM

Source: US20240262806A1, “INHIBITORS OF NLRP3” (PTC THERAPEUTICS, INC., priority 2021, published 2024)
